Results reported in ChEMBL document CHEMBL1649413, “Structure-activity relationship of 4(5)-aryl-2-amino-1H-imidazoles, N1-substituted 2-aminoimidazoles and imidazo[1,2-a]pyrimidinium salts as inhibitors of biofilm formation by Salmonella typhimurium and Pseudomonas aeruginosa” (J Med Chem, 2011).
Calls of active or inactive are those of the source. The calls are words filed in the database; no cut-off is given here.

Key:
Salmonella typhimurium [1] = assay: Antimicrobial activity against Salmonella Typhimurium ATCC 14028 assessed as inhibition of planktonic growth at 400 uM at 25 degC after 24 hrs; format: functional, organism-based; details: Salmonella enterica subsp. enterica serovar Typhimurium
Salmonella typhimurium [2] = assay: Antibiofilm activity in Salmonella Typhimurium ATCC 14028 assessed as inhibition of biofilm formation at 25 degC after 24 hrs; format: functional, organism-based, Salmonella enterica subsp. enterica serovar Typhimurium; details: Salmonella enterica, ATCC 14028, 24 h
Salmonella typhimurium [3] = assay: Antimicrobial activity against Salmonella Typhimurium ATCC 14028 assessed as inhibition of planktonic growth at 150 uM at 25 degC after 24 hrs; format: functional, organism-based; details: Salmonella enterica subsp. enterica serovar Typhimurium
Salmonella typhimurium [4] = assay: Antimicrobial activity against Salmonella Typhimurium ATCC 14028 assessed as inhibition of planktonic growth at 40 uM at 25 degC after 24 hrs; format: functional, organism-based; details: Salmonella enterica subsp. enterica serovar Typhimurium
Salmonella typhimurium [5] = assay: Antimicrobial activity against Salmonella Typhimurium ATCC 14028 assessed as inhibition of planktonic growth at 4 uM at 25 degC after 24 hrs; format: functional, organism-based; details: Salmonella enterica subsp. enterica serovar Typhimurium
Salmonella typhimurium [6] = assay: Antibiofilm activity in Salmonella Typhimurium ATCC 14028 assessed as inhibition of biofilm formation at 37 degC after 24 hrs; format: functional, organism-based, Salmonella enterica subsp. enterica serovar Typhimurium; details: Salmonella enterica, ATCC 14028, 24 h
Salmonella typhimurium [7] = assay: Antimicrobial activity against Salmonella Typhimurium ATCC 14028 assessed as inhibition of planktonic growth at 400 uM at 37 degC after 24 hrs; format: functional, organism-based; details: Salmonella enterica subsp. enterica serovar Typhimurium
Salmonella typhimurium [8] = assay: Antimicrobial activity against Salmonella Typhimurium ATCC 14028 assessed as inhibition of planktonic growth at 250 uM at 37 degC after 24 hrs; format: functional, organism-based; details: Salmonella enterica subsp. enterica serovar Typhimurium
Salmonella typhimurium [9] = assay: Antimicrobial activity against Salmonella Typhimurium ATCC 14028 assessed as inhibition of planktonic growth at 150 uM at 37 degC after 24 hrs; format: functional, organism-based; details: Salmonella enterica subsp. enterica serovar Typhimurium
Salmonella typhimurium [10] = assay: Antimicrobial activity against Salmonella Typhimurium ATCC 14028 assessed as inhibition of planktonic growth at 100 uM at 37 degC after 24 hrs; format: functional, organism-based; details: Salmonella enterica subsp. enterica serovar Typhimurium
Pseudomonas aeruginosa [11] = assay: Antibiofilm activity in Pseudomonas aeruginosa assessed as inhibition of biofilm formation at 25 degC after 24 hrs; format: functional, organism-based
Pseudomonas aeruginosa [12] = assay: Antimicrobial activity against Pseudomonas aeruginosa assessed as inhibition of planktonic growth at 100 uM at 25 degC after 24 hrs; format: functional, organism-based
Pseudomonas aeruginosa [13] = assay: Antibiofilm activity in Pseudomonas aeruginosa assessed as inhibition of biofilm formation at 37 degC after 24 hrs; format: functional, organism-based
Pseudomonas aeruginosa [14] = assay: Antimicrobial activity against Pseudomonas aeruginosa assessed as inhibition of planktonic growth at 100 uM at 37 degC after 24 hrs; format: functional, organism-based
Pseudomonas aeruginosa [15] = assay: Antimicrobial activity against Pseudomonas aeruginosa assessed as inhibition of planktonic growth at 40 uM at 37 degC after 24 hrs; format: functional, organism-based
Pseudomonas aeruginosa [16] = assay: Antimicrobial activity against Pseudomonas aeruginosa assessed as inhibition of planktonic growth at 20 uM at 37 degC after 24 hrs; format: functional, organism-based
Salmonella typhimurium [17] = assay: Antimicrobial activity against Salmonella Typhimurium ATCC 14028 assessed as inhibition of planktonic growth at 20 uM at 25 degC after 24 hrs; format: functional, organism-based; details: Salmonella enterica subsp. enterica serovar Typhimurium
Salmonella typhimurium [18] = assay: Antimicrobial activity against Salmonella Typhimurium ATCC 14028 assessed as inhibition of planktonic growth at 10 uM at 25 degC after 24 hrs; format: functional, organism-based; details: Salmonella enterica subsp. enterica serovar Typhimurium
Pseudomonas aeruginosa [19] = assay: Antimicrobial activity against Pseudomonas aeruginosa assessed as inhibition of planktonic growth at 40 uM at 25 degC after 24 hrs; format: functional, organism-based
Pseudomonas aeruginosa [20] = assay: Antimicrobial activity against Pseudomonas aeruginosa assessed as inhibition of planktonic growth at 10 uM at 25 degC after 24 hrs; format: functional, organism-based
Pseudomonas aeruginosa [21] = assay: Antimicrobial activity against Pseudomonas aeruginosa assessed as inhibition of planktonic growth at 800 uM at 37 degC after 24 hrs; format: functional, organism-based
Pseudomonas aeruginosa [22] = assay: Antimicrobial activity against Pseudomonas aeruginosa assessed as inhibition of planktonic growth at 400 uM at 37 degC after 24 hrs; format: functional, organism-based
Pseudomonas aeruginosa [23] = assay: Antimicrobial activity against Pseudomonas aeruginosa assessed as inhibition of planktonic growth at 80 uM at 25 degC after 24 hrs; format: functional, organism-based
Pseudomonas aeruginosa [24] = assay: Antimicrobial activity against Pseudomonas aeruginosa assessed as inhibition of planktonic growth at 5 uM at 25 degC after 24 hrs; format: functional, organism-based
Salmonella typhimurium [25] = assay: Antimicrobial activity against Salmonella Typhimurium ATCC 14028 assessed as inhibition of planktonic growth at 80 uM at 25 degC after 24 hrs; format: functional, organism-based; details: Salmonella enterica subsp. enterica serovar Typhimurium
Salmonella typhimurium [26] = assay: Antimicrobial activity against Salmonella Typhimurium ATCC 14028 assessed as inhibition of planktonic growth at 25 uM at 25 degC after 24 hrs; format: functional, organism-based; details: Salmonella enterica subsp. enterica serovar Typhimurium
Pseudomonas aeruginosa [27] = assay: Antimicrobial activity against Pseudomonas aeruginosa assessed as inhibition of planktonic growth at 50 uM at 25 degC after 24 hrs; format: functional, organism-based
Salmonella typhimurium [28] = assay: Antimicrobial activity against Salmonella Typhimurium ATCC 14028 assessed as inhibition of planktonic growth at 200 uM at 25 degC after 24 hrs; format: functional, organism-based; details: Salmonella enterica subsp. enterica serovar Typhimurium
Salmonella typhimurium [29] = assay: Antimicrobial activity against Salmonella Typhimurium ATCC 14028 assessed as inhibition of planktonic growth at 50 uM at 37 degC after 24 hrs; format: functional, organism-based; details: Salmonella enterica subsp. enterica serovar Typhimurium
Salmonella typhimurium [30] = assay: Antimicrobial activity against Salmonella Typhimurium ATCC 14028 assessed as inhibition of planktonic growth at 25 uM at 37 degC after 24 hrs; format: functional, organism-based; details: Salmonella enterica subsp. enterica serovar Typhimurium

Row | Structure (SMILES) | IC50 (Salmonella typhimurium [2]) | inhibition (Salmonella typhimurium [4]) | inhibition (Salmonella typhimurium [5]) | IC50 (Salmonella typhimurium [6]) | IC50 (Pseudomonas aeruginosa [11]) | IC50 (Pseudomonas aeruginosa [13]) | inhibition (Pseudomonas aeruginosa [16]) | inhibition (Salmonella typhimurium [17]) | inhibition (Salmonella typhimurium [18]) | inhibition (Pseudomonas aeruginosa [19]) | inhibition (Pseudomonas aeruginosa [20]) | inhibition (Pseudomonas aeruginosa [23]) | inhibition (Pseudomonas aeruginosa [24]) | further results
1 | Nc1ncc(-c2ccccc2)[nH]1 | 130 µM | inactive | inactive | 146 µM | 72.6 µM | 22.7 µM | inactive |  |  |  |  |  |  | inhibition (Salmonella typhimurium [1]): Active; inhibition (Salmonella typhimurium [3]): inactive; inhibition (Salmonella typhimurium [7]): inactive; inhibition (Salmonella typhimurium [8]): inactive; inhibition (Salmonella typhimurium [9]): inactive; inhibition (Salmonella typhimurium [10]): inactive; inhibition (Pseudomonas aeruginosa [12]): inactive; inhibition (Pseudomonas aeruginosa [14]): inactive; inhibition (Pseudomonas aeruginosa [15]): inactive
2 | Nc1nc(-c2ccc(-c3ccccc3)cc2)c[nH]1 | 17.3 µM | Active |  | 349 µM | 8.6 µM | 365 µM |  | Active | inactive | inactive | inactive |  |  | inhibition (Salmonella typhimurium [7]): Active; inhibition (Pseudomonas aeruginosa [21]): Active; inhibition (Pseudomonas aeruginosa [22]): Active
3 | Nc1ncc(-c2ccccc2)n1C1CCCCCC1 | 26.9 µM |  |  |  | 14.2 µM |  |  |  |  | inactive | inactive | inactive |  | 
4 | Nc1ncc(-c2ccccc2)n1C1CCCCCCC1 | 40.5 µM |  |  |  | 4.5 µM |  |  | inactive | inactive | inactive |  | inactive | inactive | inhibition (Salmonella typhimurium [25]): Active
5 | Nc1ncc(-c2ccc(Cl)cc2)[nH]1 | 16 µM | inactive | inactive | 30.1 µM | 3.5 µM | 29.3 µM | inactive |  |  |  |  |  | inactive | inhibition (Salmonella typhimurium [1]): Active
6 | CCCCCCCCCCCCCCn1c(-c2ccc(Cl)cc2)cnc1N | 453 µM |  |  |  | 19.1 µM |  |  |  |  | inactive |  | inactive | inactive | 
7 | Nc1ncc(-c2ccccc2)n1C1CCCCC1 | 85.2 µM |  |  |  | 4.6 µM |  |  |  |  | inactive |  | inactive | inactive | 
8 | CCCCCCCCCCCCn1c(-c2ccccc2)cnc1N | 7.1 µM |  | inactive |  | 12.8 µM |  |  | Active | Active | inactive | inactive | inactive |  | 
9 | Nc1ncc(-c2ccc(Cl)cc2)n1C1CCC1 | 11.6 µM | Active |  |  | 6 µM |  |  |  | inactive | inactive |  | Active | inactive | inhibition (Salmonella typhimurium [25]): Active
10 | Nc1ncc(-c2ccc([N+](=O)[O-])cc2)[nH]1 | 17.6 µM | Active |  | 396 µM | 34.5 µM | 94 µM | inactive |  | inactive |  |  |  |  | inhibition (Salmonella typhimurium [1]): Active; inhibition (Salmonella typhimurium [26]): inactive; inhibition (Salmonella typhimurium [7]): Active; inhibition (Pseudomonas aeruginosa [12]): Active; inhibition (Pseudomonas aeruginosa [27]): inactive; inhibition (Pseudomonas aeruginosa [14]): inactive; inhibition (Pseudomonas aeruginosa [15]): inactive
11 | Nc1ncc(-c2ccc(F)cc2)[nH]1 | 84.4 µM | Active | inactive | 238 µM | 15 µM | 47.6 µM | inactive |  |  | inactive | inactive |  |  | inhibition (Salmonella typhimurium [28]): Active; inhibition (Pseudomonas aeruginosa [14]): inactive; inhibition (Pseudomonas aeruginosa [15]): inactive
12 | CCCCCn1c(-c2ccccc2)cnc1N | 48.4 µM | inactive | inactive |  | 2.1 µM |  |  | inactive | inactive | inactive | inactive | inactive | inactive | inhibition (Salmonella typhimurium [25]): Active
13 | Nc1ncc(-c2ccc(Br)cc2)[nH]1 | 47.9 µM | inactive | inactive | 54.3 µM | 3.2 µM | 51.3 µM | inactive |  |  | Active | inactive |  | inactive | inhibition (Salmonella typhimurium [1]): Active; inhibition (Salmonella typhimurium [9]): inactive; inhibition (Salmonella typhimurium [10]): inactive; inhibition (Salmonella typhimurium [29]): inactive; inhibition (Salmonella typhimurium [30]): inactive; inhibition (Pseudomonas aeruginosa [14]): Active; inhibition (Pseudomonas aeruginosa [15]): inactive
14 | CCCCCCCCCCCCCCn1c(-c2ccccc2)cnc1N | 8.7 µM | inactive |  |  | 9.8 µM |  |  | inactive | inactive | inactive | inactive | inactive |  | inhibition (Salmonella typhimurium [25]): inactive
15 | CCCCCCCCCCn1c(-c2ccc(-c3ccccc3)cc2)cnc1N | 5.7 µM | inactive | inactive |  | > 400 µM |  |  | inactive |  | inactive |  | inactive | inactive | 
